Values quoted from earlier work, collected in paper PMC6625762 (Bioorganic & medicinal chemistry letters, 2019).

Kd: 5 nM
Substance: NMeAla-Tle-(4S)-4-phenoxy-Pro-(R)-tetrahydronaphth-1-yl-amide
